The values below come from ChEMBL document CHEMBL1123523, “Oxidation of 5-hydroxytryptamine and 5,7-dihydroxytryptamine. A new oxidation pathway and formation of a novel neurotoxin” (J Med Chem, 1986).

Data set [1] concerns Mus musculus. As to the kind of experiment: Compound was tested for neurotoxic property after intracranial administration in mice. Format: ADME, organism-based. The note with it: in vivo, other.
For data set [2], the species on record is Mus musculus. As to the kind of experiment: Compound was tested for lowering the norepinephrine levels in mouse brain expressed as percent of control values. Format: functional.

As for `NCCc1c[nH]c2c1C(=O)C(=O)C=C2O`, the LD50 in data set [1] turned out to be 20 µg. This compound registered an Activity in data set [2] of 87%.

For `NCCc1cc(O)c(O)cc1N`, the LD50 in data set [1] was found to be 50 µg. Still for that read-out and setting: under `CC(N)Cc1cc(O)c(O)cc1N` (stereo unspecified) stands 45 µg; under `NCCc1c[nH]c2c(O)cc(O)cc12`, 55 µg. Same read-out and setting: under `NCCc1cc(O)c(O)cc1O` [OXIDOPAMINE] stands 80 µg.
